Reference: PubChem BioAssay AID330 (DTP/NCI, 2004)
Values joined by “and” are separate entries in the source; they are usually repeats but may differ in a detail not shown here. Equal entries are not always repeated. Inconclusive results and toxic doses are left out.

System: P388 leukemia ip, CD2F1 mice, survival T/C
Experiment: NCI In Vivo Anticancer Drug Screen. Data for tumor model P388 Leukemia (intraperitoneal) in CD2F1 (CDF1) mice
Conditions: endpoint: median survival time, higher = longer survival
Method in brief: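 Mice carrying the transplanted tumor received test compound or vehicle. Survival was recorded in each group, and the value is the treated-group measurement divided by that of the vehicle-treated control group.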

[1] = dose: 50.0 mg/kg/injection, schedule: Q01DX009 (ip), vehicle: saline
[2] = dose: 100.0 mg/kg/injection, schedule: Q01DX009 (ip), vehicle: saline
[3] = dose: 200.0 mg/kg/injection, schedule: Q01DX009 (ip), vehicle: saline
[4] = dose: 50.0 mg/kg/injection, schedule: Q01DX005 (ip), vehicle: saline with Tween-80
[5] = dose: 100.0 mg/kg/injection, schedule: Q01DX005 (ip), vehicle: saline with Tween-80
[6] = dose: 200.0 mg/kg/injection, schedule: Q01DX005 (ip), vehicle: saline with Tween-80
[7] = dose: 25.0 mg/kg/injection, schedule: Q01DX005 (ip), vehicle: saline with Tween-80
[8] = dose: 50.0 mg/kg/injection, schedule: Q01DX005 (ip), vehicle: Klucel (hydroxypropylcellulose) (HPC)
[9] = dose: 100.0 mg/kg/injection, schedule: Q01DX005 (ip), vehicle: Klucel (hydroxypropylcellulose) (HPC)
[10] = dose: 200.0 mg/kg/injection, schedule: Q01DX005 (ip), vehicle: Klucel (hydroxypropylcellulose) (HPC)
[11] = dose: 60.0 mg/kg/injection, schedule: Q01DX005 (ip), vehicle: Klucel (hydroxypropylcellulose) (HPC)
[12] = dose: 120.0 mg/kg/injection, schedule: Q01DX005 (ip), vehicle: Klucel (hydroxypropylcellulose) (HPC)
[13] = dose: 50.0 mg/kg/injection, schedule: Q01DX009 (ip), vehicle: Klucel (hydroxypropylcellulose) (HPC)
[14] = dose: 100.0 mg/kg/injection, schedule: Q01DX009 (ip), vehicle: Klucel (hydroxypropylcellulose) (HPC)
[15] = dose: 240.0 mg/kg/injection, schedule: Q01DX005 (ip), vehicle: Klucel (hydroxypropylcellulose) (HPC)

For `CC1=C(C(=O)N2Cc3cc4ccccc4nc3C2)COC1=O`, the T/C (dose: 50.0 mg/kg/injection, schedule: Q01DX001 (ip), vehicle: saline with Tween-80) was 99 % of control, the T/C (dose: 100.0 mg/kg/injection, schedule: Q01DX001 (ip), vehicle: saline with Tween-80) was 90 % of control and the T/C (dose: 200.0 mg/kg/injection, schedule: Q01DX001 (ip), vehicle: saline with Tween-80) was 95 % of control. The T/C (dose: 400.0 mg/kg/injection, schedule: Q01DX001 (ip), vehicle: saline with Tween-80) was 90 % of control.

For `Cc1ccno1`, the T/C [1] was 105 % of control, the T/C [2] was 105 % of control and the T/C [3] was 105 % of control. The T/C (dose: 400.0 mg/kg/injection, schedule: Q01DX009 (ip), vehicle: saline) was 100 % of control.

In the case of `NP(=O)(OCCC(=O)c1ccccc1)N(CCCl)CCCl` (centres undefined), the T/C (dose: 25.0 mg/kg/injection, schedule: Q04DX002 (ip), vehicle: saline with Tween-80) is reported as 163 % of control, the T/C (dose: 50.0 mg/kg/injection, schedule: Q04DX002 (ip), vehicle: saline with Tween-80) is reported as 223 % of control and the T/C (dose: 100.0 mg/kg/injection, schedule: Q04DX002 (ip), vehicle: saline with Tween-80) is reported as 221 % of control and 92 % of control. The T/C (dose: 200.0 mg/kg/injection, schedule: Q04DX002 (ip), vehicle: saline with Tween-80) was 89 % of control.

For `O=C(NP(=O)(N1CC1)N1CC1)c1cc(I)ccc1I`, the T/C (dose: 4.0 mg/kg/injection, schedule: Q01DX005 (ip), vehicle: suspension in saline) was 122 % of control, the T/C (dose: 4.0 mg/kg/injection, schedule: Q01DX005 (iv), vehicle: suspension in saline) was 107 % of control and the T/C (dose: 8.0 mg/kg/injection, schedule: Q01DX005 (iv), vehicle: suspension in saline) was 112 % of control. The T/C (dose: 16.0 mg/kg/injection, schedule: Q01DX005 (ip), vehicle: suspension in saline) was 165 % of control, the T/C (dose: 16.0 mg/kg/injection, schedule: Q01DX005 (iv), vehicle: suspension in saline) was 122 % of control and the T/C (dose: 32.0 mg/kg/injection, schedule: Q01DX005 (ip), vehicle: suspension in saline) was 190 % of control. For the same compound, the T/C (dose: 64.0 mg/kg/injection, schedule: Q01DX005 (ip), vehicle: suspension in saline) was 192 % of control.

With `C/C=C(\C)C(=O)OC1C2C(C)=CC(O)C(O)C2(C)C2C3(O)OCC24C(CC(=O)OC14)C(C)C3O` (centres undefined) the T/C (dose: 0.25 mg/kg/injection, schedule: Q01DX009 (ip), vehicle: Klucel (hydroxypropylcellulose) (HPC)) was 109 % of control, the T/C (dose: 0.5 mg/kg/injection, schedule: Q01DX009 (ip), vehicle: Klucel (hydroxypropylcellulose) (HPC)) was 101 % of control and the T/C (dose: 1.0 mg/kg/injection, schedule: Q01DX009 (ip), vehicle: Klucel (hydroxypropylcellulose) (HPC)) was 104 % of control. The T/C (dose: 2.0 mg/kg/injection, schedule: Q01DX009 (ip), vehicle: Klucel (hydroxypropylcellulose) (HPC)) was 104 % of control.

For `Cc1nc2sc3c(c2c2ncnn12)CCCC3`, the T/C [4] was 103 % of control, the T/C [5] was 98 % of control and the T/C [6] was 104 % of control.

`N=C(N)SCc1csc(N)n1` was tested, and the T/C (dose: 25.0 mg/kg/injection, schedule: Q01DX009 (ip), vehicle: saline) was 105 % of control, the T/C [1] was 102 % of control and the T/C [2] was 109 % of control. The T/C [3] was 108 % of control.

For `O=C(Nc1ccc(CCC2=NCCCN2)cc1)c1ccc(C(=O)Nc2ccc(CCC3=NCCCN3)cc2)cc1`, the T/C [7] was 115 % of control and the T/C [4] was 113 % of control.

`O=C1C2=C(OCO2)C(=O)C2=C1OCO2` was tested, and the T/C (dose: 15.0 mg/kg/injection, schedule: Q01DX005 (ip), vehicle: saline with Tween-80) was 104 % of control, the T/C (dose: 30.0 mg/kg/injection, schedule: Q01DX005 (ip), vehicle: saline with Tween-80) was 101 % of control and the T/C (dose: 60.0 mg/kg/injection, schedule: Q01DX005 (ip), vehicle: saline with Tween-80) was 106 % of control.

With `CCC(CC)C(Nc1nncs1)Nc1nncs1` the T/C [4] was 90 % of control, the T/C [5] was 112 % of control and the T/C [6] was 116 % of control.

`CC1NCCc2[nH]cnc21` (centres undefined) was tested, and the T/C [1] was 96 % of control, the T/C [2] was 100 % of control and the T/C [3] was 105 % of control.

`CC(C)CN(CC(C)C)CN(CC(C)C)CC(C)C` was tested, and the T/C [4] was 100 % of control and the T/C [5] was 119 % of control.

With `Oc1c(Cl)cc(Cl)cc1C=NCCN(CCN=Cc1cc(Cl)cc(Cl)c1O)CCN=Cc1cc(Cl)cc(Cl)c1O` the T/C [8] was 98 % of control, the T/C [9] was 92 % of control and the T/C [10] was 101 % of control.

`CC(=O)c1c(C)cc2cccc(O)c2c1O` was tested, and the T/C (dose: 15.0 mg/kg/injection, schedule: Q01DX005 (ip), vehicle: Klucel (hydroxypropylcellulose) (HPC)) was 105 % of control, the T/C (dose: 30.0 mg/kg/injection, schedule: Q01DX005 (ip), vehicle: Klucel (hydroxypropylcellulose) (HPC)) was 112 % of control and the T/C [11] was 103 % of control. For the same compound, the T/C [12] was 108 % of control.

With `Cn1c(O)c(N=NC(=S)NC(=O)C23CC4CC(CC(C4)C2)C3)c2ccccc21` the T/C (dose: 1.56 mg/kg/injection, schedule: Q01DX005 (ip), vehicle: saline with Tween-80) was 96 % of control, the T/C (dose: 3.12 mg/kg/injection, schedule: Q01DX005 (ip), vehicle: saline with Tween-80) was 97 % of control and the T/C (dose: 6.25 mg/kg/injection, schedule: Q01DX005 (ip), vehicle: saline with Tween-80) was 103 % of control. For the same compound, the T/C [4] was 86 % of control and the T/C [6] was 89 % of control.

`OC1OCC(Cc2ccc3c(c2)OCO3)C1Cc1ccc2c(c1)OCO2` (centres undefined) was tested, and the T/C (dose: 100.0 mg/kg/injection, schedule: Q04DX003 (ip), vehicle: other) was 95 % of control, the T/C (dose: 200.0 mg/kg/injection, schedule: Q04DX003 (ip), vehicle: other) was 90 % of control and the T/C (dose: 400.0 mg/kg/injection, schedule: Q04DX003 (ip), vehicle: other) was 90 % of control.

For `COc1cc2c(cc1Cl)nc1c(=O)[nH]c(=O)nc-1n2CCN1CCCC1`, the T/C (dose: 12.5 mg/kg/injection, schedule: Q01DX005 (ip), vehicle: saline with Tween-80) was 100 % of control, the T/C [7] was 108 % of control and the T/C [4] was 111 % of control and 115 % of control. For the same compound, the T/C [5] was 116 % of control and the T/C [6] was 114 % of control.

`CC1CC(c2ccccc2)(c2ccccc2)C(=O)C(C)N1C` (centres undefined) was tested, and the T/C [8] was 107 % of control, the T/C [9] was 105 % of control and the T/C [10] was 97 % of control.

With `ClCCN(CCCl)c1ccc2c(c1)Cc1cc(Br)ccc1-2` the T/C [13] was 107 % of control, the T/C [14] was 110 % of control and the T/C (dose: 200.0 mg/kg/injection, schedule: Q01DX009 (ip), vehicle: Klucel (hydroxypropylcellulose) (HPC)) was 106 % of control. The T/C (dose: 400.0 mg/kg/injection, schedule: Q01DX009 (ip), vehicle: Klucel (hydroxypropylcellulose) (HPC)) was 110 % of control.

In the case of `COc1cc2c(cc1-c1coc3cc(OCC=C(C)C)ccc3c1=O)OCO2`, the T/C (dose: 9.0 mg/kg/injection, schedule: Q01DX005 (ip), vehicle: Klucel (hydroxypropylcellulose) (HPC)) is reported as 96 % of control, the T/C (dose: 18.0 mg/kg/injection, schedule: Q01DX005 (ip), vehicle: Klucel (hydroxypropylcellulose) (HPC)) is reported as 94 % of control and the T/C (dose: 36.0 mg/kg/injection, schedule: Q01DX005 (ip), vehicle: Klucel (hydroxypropylcellulose) (HPC)) is reported as 87 % of control. The T/C (dose: 72.0 mg/kg/injection, schedule: Q01DX005 (ip), vehicle: Klucel (hydroxypropylcellulose) (HPC)) was 92 % of control.

With `CC(C)(C)NC(=O)NS(=O)(=O)c1cccnc1Sc1ccccc1Cl` the T/C [11] was 107 % of control, the T/C [12] was 105 % of control and the T/C [15] was 99 % of control.

For `Cn1c(N=P(c2ccccc2)(c2ccccc2)c2ccccc2)cc(=O)n(C)c1=O`, the T/C [11] was 101 % of control, the T/C [12] was 102 % of control and the T/C [15] was 101 % of control.

With `O=C(CC(Sc1ccccc1)c1cccc([N+](=O)[O-])c1)c1ccccc1` (centres undefined) the T/C [13] was 93 % of control and the T/C [14] was 95 % of control.

With `C1=[N+]2CCCC2Cc2ccc3ccccc3c21` (centres undefined) the T/C (dose: 12.5 mg/kg/injection, schedule: Q04DX003 (ip), vehicle: saline) was 100 % of control, the T/C (dose: 25.0 mg/kg/injection, schedule: Q04DX003 (ip), vehicle: saline) was 103 % of control and the T/C (dose: 50.0 mg/kg/injection, schedule: Q04DX003 (ip), vehicle: saline) was 100 % of control.

For `CC/C=C/c1cc2ccccc2c(=O)o1`, the T/C (dose: 12.5 mg/kg/injection, schedule: Q01DX009 (ip), vehicle: Klucel (hydroxypropylcellulose) (HPC)) was 106 % of control, the T/C (dose: 25.0 mg/kg/injection, schedule: Q01DX009 (ip), vehicle: Klucel (hydroxypropylcellulose) (HPC)) was 114 % of control and the T/C [13] was 100 % of control. The T/C [14] was 110 % of control.
